In general, IC50 refers to the concentration that gives 50% inhibition.

Counter-ions that a name gives are not always drawn. A value given as a limit tells only on which side of the number the result lay.

Experimental findings from EP2669288A1, “New monosaccharide derivatives and biological applications thereof” (L[…], priority 2012, dated 2013) are described below.

One experiment concerns the target HldE of E. coli (Escherichia coli, UniProt P76658). As to the kind of experiment: Inhibition of the enzymatic activity of HldE-K (luminescent assay on kinase activity). Type of experiment: biochemical. The following applies: 3nM HldE, 0.2µM β-heptose-7-phosphate, 0.2µM ATP; 30min pre-incubation. The method, then: Inhibition of the enzymatic activity of HldE-K (luminescent assay on kinase activity):
The assay buffer "AB" contained 50 mM Hepes pH7.5, 1 mM MnCl2, 25 mM KCl, 0.012% Triton-X100 and 1mm dithiothreitol (DTT) and 0.1µM Myelin basic protein (MBP). The following components were added in a white polystyrene Costar plate up to a final volume of 30µL: 10µL inhibitor dissolved in DMSO/water 50/50, and 20µL HldE of E. coli in AB. After 30min of pre-incubation at room temperature, 30µL of Substrates mix in AB were added in each well to a final volume of 60µL. This reaction mixture was then composed of 3nM HldE, 0.2µM β-heptose-7-phosphate (custom synthesis) and 0.2µM ATP (Sigma) in assay buffer. After 30min of incubation at room temperature, 200µL of the revelation mix were added to a final volume of 260µL, including the following constituents at the respective final concentrations: 5000 light units/ml luciferase (Sigma), 30µM D-luciferin (Sigma), 100µM N-acetylcysteamine (Aldrich). Luminescence intensity was immediately measured on Luminoskan (Thermofischer) and converted into inhibition percentages. For IC50 determinations, the inhibitor was tested at 6 to 10 different concentrations, and the related inhibitions were fitted to a classical Langmuir equilibrium model using XLFIT (IDBS).

Another experiment has as its target GmhA of E. coli (Escherichia coli, UniProt P63224). As to the kind of experiment: Inhibition of the enzymatic activity of GmhA (luminescent assay). The following applies: 2nM GmhA, 3µM sedoheptulose-7-phosphate, 3µM ATP, 50nM HldE; 30min pre-incubation. It counts as biochemical. As to the method:
Inhibition of the enzymatic activity of GmhA (luminescent assay):
The assay buffer "AB" contained 50 mM Hepes pH7.5, 1 mM MnCl2, 25 mM KCl, 0.012% Triton-X100 and 1mm dithiothreitol (DTT) and 0.1µM Myelin basic protein (MBP). The following components were added in a white polystyrene Costar plate up to a final volume of 30µL: 10µL inhibitor dissolved in DMSO/water 50/50, and 20µL GmhA of E. coli in AB. After 30min of pre-incubation at room temperature, 30µL of Substrates mix in AB were added in each well to a final volume of 60µL. This reaction mixture was then composed of 2nM GmhA, 3µM sedoheptulose-7-phosphate (Sigma), 3µM ATP (Sigma) and 50nM HldE of E. coli in assay buffer. After 30min of incubation at room temperature, 100µL of the revelation mix were added to a final volume of 160µL, including the following constituents at the respective final concentrations: 10000 light units/ml luciferase (Sigma), 20µM D-luciferin (Sigma), 100µM N-acetylcysteamine (Aldrich). Luminescence intensity was immediately measured on Luminoskan (Thermofischer) and converted into inhibition percentages. For IC50 determinations, the inhibitor was tested at 6 to 10 different concentrations, and the related inhibitions were fitted to a classical langmuir equilibrium model using XLFIT (IDBS).

In another experiment the test system is E. coli C7 (018:K1:H7). The experiment can be described thus: Killing of the bacteria in culture with compound. It counts as cell-based. The following applies: at 1 mM. The method, then:
Bacterial culture: The effect of heptosylation inhibitors on E. coli LPS was assessed as described below. The compounds to be tested were prepared in deionised water/DMSO (50/50) solutions and added (25µL) in sterile culture microtubes. The strain used in this study was E. coli C7 (018:K1:H7). The bacteria were isolated on tryptic soy agar (TSA) over-night. Isolated colonies were cultured in 10ml of Luria-Bertani medium (LB) at 37°C up to an optical density of typically 0.15. These exponentially growing bacteria were finally diluted to 5e5 cfu/ml and added in each well (225µL) for incubation with the compounds at 37°C for approximately 5 hours, up to an optical density of ≈0.2-0.4. Some test compounds e.g. phospho-sugars required Glucose-6-Phosphate (G6P, from Sigma) to be added in the culture medium in order to activate their active transport into the bacterial cytosol via the phospho-sugar transporter UhpT. This was achieved by adding in the culture tube 2.5µL of a 10mM water solution of G6P (100µM final concentration).

The subject of experiment [1] is E. coli C7 LPS heptosylation. As to the kind of experiment: Inhibition of E. coli C7 LPS biosynthesis (LPS gel electrophoresis, silver staining). Type of experiment: cell-based, E. coli C7 (018:K1:H7). The method, then:
Inhibition of E. coli C7 (018:K1:H7) LPS biosynthesis:
The inner core contains several heptose residues. An inhibitor of the LPS heptosylation pathway should therefore reduce dramatically the size of LPS from full-length to the so-called 'Re-LPS' limited to lipid A branched with 2 Kdo residues.
Bacterial culture: The effect of heptosylation inhibitors on E. coli LPS was assessed as described below. The compounds to be tested were prepared in deionised water/DMSO (50/50) solutions and added (25µL) in sterile culture microtubes. The strain used in this study was E. coli C7 (018:K1:H7). The bacteria were isolated on tryptic soy agar (TSA) over-night. […]
LPS extraction: Bacterial cultures were normalized via OD determination, pelleted and washed with 1ml Phosphate-Buffer-Saline (PBS). […] The resulting supernatant, containing LPS was finally analysed by SDS-PAGE electrophoresis. […]
Silver staining: Gels were incubated overnight in 5% acetic acid/40% ethanol/deionised water, treated by 1% periodic acid/5% acetic acid for 15min, washed 4 times for 10min in deionised water and finally incubated for 18min in the dark in a silver nitrate solution composed of 56ml NaOH 0.1N, 4ml ammoniac 33%, 45ml AgN03 5% (Tsai and Frasch) and 195 ml deionised water. […] Gels were finally washed in deionised water, numerized with a Samsung PL51 camera and analysed by ImageJ software. […]

Sequence of HldE of E. coli (P76658 whole entry): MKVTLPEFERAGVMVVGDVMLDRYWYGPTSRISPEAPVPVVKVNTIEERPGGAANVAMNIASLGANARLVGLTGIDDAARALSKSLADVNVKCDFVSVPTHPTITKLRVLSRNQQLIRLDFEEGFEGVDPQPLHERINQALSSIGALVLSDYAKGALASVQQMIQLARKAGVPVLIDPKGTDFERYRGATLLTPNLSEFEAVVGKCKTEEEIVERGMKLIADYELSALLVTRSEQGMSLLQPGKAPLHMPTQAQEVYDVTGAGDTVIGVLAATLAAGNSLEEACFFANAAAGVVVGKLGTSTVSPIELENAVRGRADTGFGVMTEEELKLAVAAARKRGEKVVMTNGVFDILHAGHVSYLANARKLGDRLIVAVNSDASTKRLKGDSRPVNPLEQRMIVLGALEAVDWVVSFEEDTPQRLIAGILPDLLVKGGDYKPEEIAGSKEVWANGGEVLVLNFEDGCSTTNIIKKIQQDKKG
Sequence of GmhA of E. coli (P63224 whole entry): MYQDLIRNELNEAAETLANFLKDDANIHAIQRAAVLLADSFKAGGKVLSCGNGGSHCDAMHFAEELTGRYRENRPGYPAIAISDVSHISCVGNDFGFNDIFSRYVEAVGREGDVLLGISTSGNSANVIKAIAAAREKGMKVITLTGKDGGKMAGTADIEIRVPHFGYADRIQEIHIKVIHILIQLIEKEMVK

With “7-O-phosphate-D-glycero-D-gluco-2-deoxy-2-amino-1-deoxy-heptopyranoside hydrochloride [Example 1]”, the concentration for half-maximal inhibition (IC50) against HldE of E. coli and against GmhA of E. coli was below 100 µM each time.
For the compound `N[C@H]1C(O)O[C@H]([C@H](O)COP(=O)(O)O)[C@@H](O)[C@@H]1O` (stereo partly drawn) [Example 2, 7-O-phosphate-D-glycero-D-gluco-2-deoxy-2-amino-heptopyranoside hydrochloride], in the experiment on E. coli C7 (018:K1:H7), the “killing of the bacteria” value is given as “did not kill the bacteria”. The “reducing LPS heptosylation” value in experiment [1] (in absence of G6P) is “inactive”. Moreover, the “inhibition of E. coli C7 LPS heptosylation” value in experiment [1] (in the presence of 100 µM G6P, at concentrations < 1 mM) is listed as “at least 50%”. For the same compound, the IC50 on HldE of E. coli and against GmhA of E. coli was below 100 µM throughout.
